From patent US6682927B2, “Methods and apparatus for the high through-put detection of binding interactions in vivo” (priority 1998, dated 2004)

How the values were obtained:
[1] = test system: RBL cells expressing PKCγ-YFP; test: E-SCAM measurement of plasma membrane translocation of PKCγ-YFP; format: cell-based, Rat; settings: ionomycin-induced PKCγ translocation in RBL cells; data not shown
Excerpt: FIG. 11. E-SCAM measurement of plasma membrane translocation events in more than a thousand cells. (A) Schematic view of the Evanescent wave Single Cell Array Macroscope (E-SCAM) in which the excitation light is directly coupled into the coverslip. (B) Low magnification images of RBL, cells expressing PKCγ-YFP before (left) and after stimulation with calcium ionophore (right). […] (Bar=1 mm). (C and D) Statistical analysis of receptor-triggered fluorescence intensity changes measured in RBL-cells expressing PKCγ-YFP after stimulation by cross-linking of their FcεRI receptors with the antigen DNP-BSA. (C) Typical time courses. (D) Histogram of the maximum amplitude of fluorescence intensity changes that was measured in each of more than 1000 cells visible in the field of view.
Construction of an Evanescent wave Single Cell Array Macroscope (E-SCAM). A wide-field microscope (macroscope) was designed in similar fashion to the higher magnification system described above. Two Rodenstock 100 mm Heligon lenses were mounted below the coverslip in opposite directions to obtain a combined objective and ocular with 1:1 magnification. The second lens projected the sample image onto a 5 MHz Micromax camera made commercially available from Roper Scientific of Trenton, N.J. This lens combination has high spatial and chromatic accuracy as well as a numerical aperture of NA˜0.3 (F/1.6). […]

[2] = test system: cells expressing the plasma membrane localized GFP construct; test: Control: fluorescence of cells expressing plasma membrane localized GFP; format: cell-based; settings: ionomycin and phorbol ester added together
Procedure: FIG. 6. Evanescent wave excitation of fluorescent cytosolic and membrane proteins in adherent cells. (A) Schematic view of the microscope setup (see Materials and Methods section for description). (B) Fluorescent images of RBL cells that express cytosolic GFP (left; representative of 6 experiments) or plasma membrane targeted GFP (right, n=3). A myristoylation/palmitoylation sequence was fused to the N-terminal end of GFP for membrane targeting.
Fluorescent images were recorded from RBL-cells that had similar levels of expressed cytosolic or plasma membrane localized GFP constructs. The targeting of GFP to the plasma membrane utilized a fusion of the 12 amino acid palmitoylation/myristoylation plasma membrane targeting sequence from Lyn to the N-terminus of GFP (Teruel, et al. (1999) J. Neuroscience Methods 93: 37-48). The fluorescence intensity of cells with expressed cytosolic GFP (FIG. 6B) was typically 3 to 10-fold lower than the intensity of cells with expressed plasma membrane targeted GFP (FIG. 6C).
Analysis of Receptor Triggered Translocation of PKCγ-GFP in Thin Cells. […] The changes in fluorescence intensity could be followed in a series of several hundred images. […] Similar receptor-triggered fluorescence intensity oscillations could be observed in RBL cells (FIG. 7D) and 3T3 fibroblasts (data not shown).

[3] = test system: RBL-cells that express C1A-CaMKII and GFP-CaMKIIα; test: In vivo protein-protein binding assay with inducible C1A translocation domain, evanescent wave excitation; format: cell-based, Rat; settings: PDBu 1 μM, n=3
Excerpt: FIG. 10. Measuring protein-protein binding interactions of cytosolic proteins using an evanescent wave excitation. (A) Schematic representation of the in vivo binding assay. Binding between Proteins X and Y can be measured by conjugating Protein X with GFP and Protein Y with an inducible plasma membrane targeting domain. […] The C1A-domain from PKCγ was used as an inducible translocation domain. […] Typical translocation traces are shown.
Cloning of GFP-Fusion Constructs and Electroporation. […]
Measuring Protein-Protein Binding Interactions with High Signal-to-Background by Evanescent Wave Excitation. Protein-protein binding interactions have been measured previously by using a dual protein fusion strategy in which a protein Y was conjugated with an inducible plasma membrane translocation domain and a protein X with a GFP-tag (FIG. 5A, ref. 40). By inducing plasma membrane translocation of the non-fluorescent protein Y, the increase in plasma membrane fluorescence from the fluorescent protein X becomes a measure for the fraction of protein X that is bound to protein Y (since it is carried along with protein Y to the plasma membrane). […]
Evanescent wave excitation was now used in combination with the same assay. […] RNA transfection was used for quantitative expression of the two constructs (Teruel, et al. (1999) J. Neuroscience Methods 93: 37-48). […]

[4] = test system: hippocampal astrocytes expressing PKCγ-GFP; test: Plasma membrane translocation of PKCγ-GFP by evanescent wave excitation; format: cell-based; settings: glutamate 100 μM, ionomycin 2 μM
Procedure: FIG. 7. Plasma membrane translocation of PKCγ measured in hippocampal astrocytes by evanescent wave excitation. (A) Time series of fluorescent images of cultured hippocampal astrocytes expressing PKCγ-GFP stimulated with glutamate (100 μM; n=47). […] (B) The same experiment as in (A) but with calcium ionophore added (2 μM ionomycin; n=8). (Bars=10 μm in (A) and (B)). (C) Time course of PKCγ-GFP translocation measured as a fractional increase in fluorescence intensity and triggered by glutamate addition (100 μM, left) to a single astrocyte (left panel; n=47). (D) Similar periodic intensity changes in an RBL stably expressing PAF receptors following the addition of 100 nM PAF. Ionomycin was added at the end of each experiment (2 μM).
Cell Culturing. Rat basophilic leukemia 2H3 (RBL) cells were grown and plated as described by Oancea, et al. ((1997) J. Cell Biol. 140, 485-498) and Oancea, E. & Meyer, T. ((1998) Cell 95, 307-318). […]
Evanescent Wave Excitation and Fluorescence Microscopy (also termed Total Internal Reflection Fluorescence Microscopy or TIRFM). […] For glass coverslips, total internal reflection occurs for angles above 61° [θI,c=arcsin(n2/n1), calculated for a refractive index n1=1.52 for glass and n2=1.33 for water]. […] The space constant of the exponential decay I(z)=I(0)exp(−z/d) at a given angle can be calculated as described by Axelrod ((1981) J. Cell. Biol. 89, 141-145). […]

Row | Compound | cell compliance of induced translocation [1] | change in fluorescence intensity of plasma membrane localized GFP (control) [2] | plasma membrane fluorescence change, C1A-CaMKIIα and GFP-CaMKIIα [3] | change in fluorescence intensity (PKCγ-GFP translocation) [4]
1 | C[C@H](CCC(=O)O)C[C@H](C)C[C@H](C)C(=O)/C=C(\O)[C@H](C)C[C@H](C)C/C=C/[C@@H](C)[C@@H](O)[C@@H](C)[C@@H](O)C[C@@H]1CC[C@@](C)([C@H]2CC[C@@](C)([C@@H](C)O)O2)O1 [ionomycin] | 100% | no significant change in fluorescence intensity |  | 
2 | CCCC(=O)O[C@@H]1[C@@H](C)[C@@]2(O)[C@@H](C=C(CO)C[C@]3(O)C(=O)C(C)=C[C@@H]23)[C@@H]2C(C)(C)[C@]12OC(=O)CCC [PDBu] |  | no significant change in fluorescence intensity | marked increase in plasma membrane fluorescence | 
3 | N[C@@H](CCC(=O)O)C(=O)O [glutamate] |  |  |  | marked increase in fluorescence intensity
